The text below walks through data of patent US20230078764A1 (Yumanity Therapeutics, Inc., priority 2019, published 2023).

A value given as a limit tells only on which side of the number the result lay.

One assay has as its target T1, human SCD1 (Homo sapiens, UniProt O00767).
T1 construct: expressed in transfected cells; host or cells: yeast strain with OLE1 deleted, plasmid-borne human SCD1 (selected in SD-Ura)
T1 sequence (O00767 1-359): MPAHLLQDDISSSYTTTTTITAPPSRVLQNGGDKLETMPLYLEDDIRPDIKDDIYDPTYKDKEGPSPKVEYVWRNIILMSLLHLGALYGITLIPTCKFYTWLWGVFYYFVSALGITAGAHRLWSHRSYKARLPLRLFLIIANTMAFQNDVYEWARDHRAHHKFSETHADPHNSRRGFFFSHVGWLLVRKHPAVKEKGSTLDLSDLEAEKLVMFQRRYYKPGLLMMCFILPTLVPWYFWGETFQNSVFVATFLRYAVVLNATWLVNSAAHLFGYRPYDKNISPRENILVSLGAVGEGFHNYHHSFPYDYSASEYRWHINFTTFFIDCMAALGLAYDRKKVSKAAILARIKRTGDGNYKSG
As to the kind of experiment: Growth inhibition of yeast strain expressing human SCD1 as sole desaturase (OLE1 deleted), OD600 readout. To be noted: yeast strain expressing human SCD1 as sole desaturase; growth (OD600) after 40 h at 30° C.; read-out: SCD1 IC50. In kind it is cell-based.

Another assay deals with T2, human SCD5 (Homo sapiens, UniProt Q86SK9).
T2 construct: expressed in transfected cells; host or cells: yeast strain with OLE1 deleted, plasmid-borne human SCD5 (selected in SD-Ura)
T2 sequence (Q86SK9 1-330): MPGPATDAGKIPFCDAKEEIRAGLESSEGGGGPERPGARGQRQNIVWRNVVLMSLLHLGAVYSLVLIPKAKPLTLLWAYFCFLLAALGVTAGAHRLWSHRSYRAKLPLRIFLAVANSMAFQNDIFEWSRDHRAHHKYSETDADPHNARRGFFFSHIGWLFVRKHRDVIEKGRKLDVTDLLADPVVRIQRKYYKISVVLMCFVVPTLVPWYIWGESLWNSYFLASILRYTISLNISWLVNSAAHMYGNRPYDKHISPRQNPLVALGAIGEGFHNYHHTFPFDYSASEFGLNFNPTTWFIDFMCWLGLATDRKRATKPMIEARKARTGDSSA
Put plainly: Growth inhibition of yeast strain expressing human SCD5 as sole desaturase (OLE1 deleted), OD600 readout. In kind it is cell-based. To be noted: yeast strain expressing human SCD5 as sole desaturase; growth (OD600) after 40 h at 30° C.; read-out: SCD5 IC50.

The IC50 is the point on the concentration scale where inhibition reaches its midpoint. Turning to `Cn1nc(NC(=O)N2CCC(Cc3cccc(Cl)c3)CC2)ccc1=O` [Compound 309], the IC50 at human SCD1 was determined as 0.54 µM; on human SCD5, 0.05 µM.

For `Cn1nc(NC(=O)c2ccc(Cc3cc(F)cc(F)c3)cn2)ccc1=O` [Compound 310], the half-inhibitory concentration (IC50) stood at 0.14 µM at human SCD1 and 0.01 µM on human SCD5.

In the case of `Cn1cc(NC(=O)c2ccc(Cc3cc(F)cc(F)c3)cn2)ccc1=O` [Compound 311], the values for the IC50 on human SCD1 and at human SCD5 were 1.02 µM and 0.01 µM, respectively.

`Cn1nc(NC(=O)c2ccc(Cc3ccc(F)c(F)c3)cn2)ccc1=O` [Compound 312]: the IC50 on human SCD1 came out at 1.82 µM; on human SCD5 it was 0.03 µM.

In the case of `Cn1cc(NC(=O)c2ccc(Cc3ccc(F)c(F)c3)cn2)ccc1=O` [Compound 313], the IC50 on human SCD1 was 1.86 µM; at human SCD5, 0.02 µM.

For `Cn1cc(C(=O)Nc2ccc(Cc3ccc(F)c(F)c3)cn2)cn1` [Compound 314], the IC50 at human SCD1 worked out at 0.1 µM; on human SCD5 it was 0.02 µM.

Take `Cn1cc(C(=O)Nc2ccc(Cc3cc(F)cc(F)c3)cn2)cn1` [Compound 315]: the IC50 on human SCD1 and at human SCD5 was 0.01 µM throughout.

For the compound `Cn1cc(C(=O)Nc2ccc(Cc3cc(F)cc(Cl)c3)cn2)cn1` [Compound 316], the IC50 at human SCD1 and at human SCD5 was 0.01 µM throughout.

For the compound `Cn1nc(C(=O)Nc2nc(Br)c(Cc3cccc(F)c3)s2)ccc1=O` [Compound 317], the IC50 at human SCD1 amounted to 0.98 µM; at human SCD5, 0.1 µM.

For the compound `CCO/C=C/c1ccc(C(=O)Nc2ccc(Cc3cccc(Cl)c3)cn2)cn1` [Compound 318], the IC50 on human SCD1 is 0.13 µM; on human SCD5, 0.05 µM.

With `O=C(Nc1ccc(Cc2cccc(Cl)c2)cn1)c1cnc(Cl)c(F)c1` [Compound 319], the values for the IC50 at human SCD1 and at human SCD5 were over 45 µM and 0.46 µM, respectively.

`C=C(OCC)c1ccc(C(=O)Nc2ccc(Cc3cccc(Cl)c3)cn2)cn1` [Compound 320]: the results for the half-inhibitory concentration (IC50) at human SCD1 and at human SCD5 were over 45 µM and 1.58 µM, respectively.

In the case of `O=C(Nc1ccc(CC2CCCCC2)cn1)c1ccc(CO)cn1` [Compound 321], the IC50 at human SCD1 and on human SCD5 was 0.01 µM in each case.

Turning to `Cn1nc(NC(=O)N[C@H]2CC[C@@H](Cc3cccc(Cl)c3)CC2)ccc1=O` [Compound 322], the results for the half-inhibitory concentration (IC50) at human SCD1 and on human SCD5 were 12.7 µM and 6.07 µM, respectively.

Consider `Cn1nc(C(=O)Nc2ccc(Cc3ccc(F)c(Cl)c3)cn2)cc1O` [Compound 323], for which the IC50 on human SCD1 amounted to 10.7 µM; on human SCD5, 0.81 µM.

Turning to `Cn1nc(C(=O)Nc2ccc(Cc3ccc(F)c(F)c3)cn2)cc1O` [Compound 324], the IC50 was over 45 µM on human SCD1 and 1.13 µM on human SCD5.

Turning to `Cn1nc(C(=O)Nc2ccc(Cc3cc(F)cc(F)c3)cn2)cc1O` [Compound 325], the IC50 came out at 16.4 µM at human SCD1 and 0.66 µM at human SCD5.

On to `CCn1cc(C(=O)Nc2ccc(CC3CCCCC3)cn2)ccc1=O` [Compound 326], for which the IC50 at human SCD1 is over 45 µM; at human SCD5, 4.71 µM.

Consider `N#Cc1ccc(C(=O)Nc2ccc(CC3CCCCC3)cn2)cn1` [Compound 327], for which the results for the IC50 on human SCD1 and at human SCD5 were over 45 µM and 1.32 µM, respectively.

For the compound `Cn1cccc(C(=O)Nc2ccc(Cc3ccc(F)c(F)c3)cn2)c1=O` [Compound 328], the half-maximal inhibitory concentration (IC50) amounted to 1.76 µM at human SCD1 and 0.01 µM at human SCD5.

For `Cn1cccc(C(=O)Nc2ccc(Cc3cc(F)cc(F)c3)cn2)c1=O` [Compound 329], the figures for the IC50 on human SCD1 and on human SCD5 were 0.1 µM and 0.01 µM, respectively.

For `Cn1cccc(C(=O)Nc2ccc(Cc3cccc(Cl)c3)cn2)c1=O` [Compound 330], the 50% inhibitory concentration (IC50) is 0.57 µM at human SCD1 and 0.01 µM on human SCD5.

Regarding `Cn1cccc(C(=O)Nc2ccc(Cc3ccc(F)c(Cl)c3)cn2)c1=O` [Compound 331], the concentration for half-maximal inhibition (IC50) was 0.13 µM at human SCD1 and 0.01 µM at human SCD5.

On to `CCn1cccc(C(=O)Nc2ccc(Cc3cccc(F)c3)cn2)c1=O` [Compound 332], for which the IC50 was determined as 1.68 µM at human SCD1 and 0.48 µM at human SCD5.

In the case of `C=Cc1ncc(C(=O)Nc2ccc(Cc3cccc(Cl)c3)cn2)cc1F` [Compound 333], the IC50 on human SCD1 was 0.11 µM; at human SCD5, 0.18 µM.

Turning to `O=C(Nc1ccc(Cc2cccc(F)c2)cn1)c1cc(Br)sn1` [Compound 334], the half-inhibitory concentration (IC50) is over 45 µM on human SCD1 and 9.39 µM at human SCD5.

In the case of `Cn1ccc(C(=O)Nc2ccc(Cc3cccc(F)c3)cn2)nc1=O` [Compound 335], the figures for the IC50 on human SCD1 and at human SCD5 were 15.4 µM and 0.69 µM, respectively.

On to `Cn1cc(C(=O)N[C@H]2CC[C@H](Cc3cccc(Cl)c3)CC2)ccc1=O` [Compound 336], for which the IC50 at human SCD1 was over 45 µM; on human SCD5 it was 4.27 µM.

On to `Cn1cc(C(=O)Nc2ccc(C#CC3CC3)cn2)ccc1=O` [Compound 337], for which the values for the IC50 on human SCD1 and on human SCD5 were over 45 µM and 9.87 µM, respectively.

Regarding `Cn1nc(C(=O)Nc2cc(Cc3ccc(Cl)cc3)ccn2)ccc1=O` [Compound 338], the figures for the IC50 on human SCD1 and on human SCD5 were over 45 µM and 16.3 µM, respectively.

For `CC1(C)CN(C(=O)c2ccc(Cc3cccc(F)c3)cn2)CCO1` [Compound 339], the IC50 on human SCD1 was over 45 µM; on human SCD5 it was 17.7 µM.

In the case of `CN1N=C(C(=O)Nc2ncc(Cc3cccc(C(F)(F)F)c3)s2)CCC1=O` [Compound 340], the values for the IC50 on human SCD1 and at human SCD5 were 0.09 µM and 0.12 µM, respectively.

Turning to `CN1N=C(C(=O)Nc2ncc(Cc3ccc(C#N)cc3)s2)CCC1=O` [Compound 341], the IC50 at human SCD1 is over 45 µM; at human SCD5, 2.7 µM.

`Cn1cc(C(=O)Nc2ccc(Nc3cccc(Cl)c3)cn2)ccc1=O` [Compound 342]: the IC50 at human SCD1 is over 45 µM; on human SCD5, 20.9 µM.

On to `CN1N=C(C(=O)Nc2ccc(Cc3cccc(F)c3)s2)CCC1=O` [Compound 343], for which the half-inhibitory concentration (IC50) on human SCD1 turned out to be 3.14 µM; at human SCD5, 3.42 µM.

In the case of `O=C(Nc1ccc(Cc2cccc(F)c2)cn1)c1ccn2cnnc2c1` [Compound 344], the figures for the IC50 at human SCD1 and on human SCD5 were over 45 µM and 26.3 µM, respectively.

In the case of `Cn1nc(C(=O)Nc2nnc(Cc3cccc(F)c3)s2)ccc1=O` [Compound 345], the IC50 worked out at 3.95 µM at human SCD1 and 2.52 µM on human SCD5.

`Cn1nc(C(=O)Nc2nnc(Cc3cc(F)cc(Cl)c3)s2)ccc1=O` [Compound 346]: the IC50 on human SCD1 amounted to 0.34 µM; on human SCD5, 0.55 µM.

For `Cn1nc(C(=O)Nc2nnc(Cc3ccc(F)c(Cl)c3)s2)ccc1=O` [Compound 347], the IC50 was found to be 0.68 µM on human SCD1 and 0.71 µM on human SCD5.

As to `CN(Cc1ccc(C(=O)Nc2ccc(Cc3cccc(Cl)c3)cn2)cn1)C(=O)OC(C)(C)C` [Compound 348], the figures for the half-maximal inhibitory concentration (IC50) at human SCD1 and on human SCD5 were 7.37 µM and 4.96 µM, respectively.

With `Cn1cc(C(=O)Nc2ccc(Nc3cccc(F)c3)cn2)ccc1=O` [Compound 349], the IC50 was over 45 µM at human SCD1 and 32.3 µM at human SCD5.

With `Cn1cc(C(=O)Nc2nnc(Cc3ccc(F)c(Cl)c3)s2)ccc1=O` [Compound 350], the IC50 on human SCD1 turned out to be 2.6 µM; on human SCD5 it was 5.42 µM.

Consider `Cn1nc(C(=O)Nc2cnc(Cc3cccc(Cl)c3)nc2)ccc1=O` [Compound 351], for which the figures for the IC50 on human SCD1 and at human SCD5 were over 45 µM and 35.5 µM, respectively.

Take `Cn1cc(NCc2ccc(Cc3cccc(F)c3)cn2)ccc1=O` [Compound 352]: the IC50 is over 45 µM at human SCD1 and 35.5 µM on human SCD5.

Consider `Cn1cc(C(=O)Nc2nc(C#N)c(Cc3cccc(F)c3)s2)ccc1=O` [Compound 353], for which the IC50 is 1.94 µM at human SCD1 and 1.36 µM on human SCD5.

As for `CC(=O)c1ccc(C(=O)Nc2ccc(Cc3cccc(Cl)c3)cn2)cn1` [Compound 354], the IC50 at human SCD1 stood at 6.78 µM; on human SCD5 it was 0.28 µM.

Take `CCn1cc(C(=O)Nc2ccc(Cc3cccc(F)c3)cn2)cn1` [Compound 355]: the figures for the IC50 at human SCD1 and at human SCD5 were 0.54 µM and 0.16 µM, respectively.

For `Cn1cc(C(=O)Nc2ccc(Cc3cccc(F)c3)cn2)cn1` [Compound 356], the results for the half-maximal inhibitory concentration (IC50) on human SCD1 and at human SCD5 were 0.12 µM and 0.04 µM, respectively.

For the compound `Cn1cc(NC(=O)c2ccc(Cc3cccc(F)c3)cn2)ccc1=O` [Compound 357], the 50% inhibitory concentration (IC50) was found to be 4.06 µM at human SCD1 and 0.05 µM on human SCD5.

On to `O=C(Nc1ccc(Cc2cccc(F)c2)cn1)c1cnc2nsnc2c1` [Compound 358], for which the half-inhibitory concentration (IC50) on human SCD1 was determined as 6.05 µM; on human SCD5 it was 0.17 µM.

On to `Cn1cc(-c2cnc(NC(=O)Cc3cccc(F)c3)cn2)ccc1=O` [Compound 359], for which the IC50 on human SCD1 amounted to 18.7 µM; at human SCD5, 3.27 µM.

As to `Cn1nc(C(=O)Nc2ccc(CCOc3cccc(F)c3)cn2)ccc1=O` [Compound 360], the IC50 at human SCD1 came out at 32.6 µM; on human SCD5 it was 6.59 µM.

Consider `Cn1cc(C(=O)Nc2ccc(OCc3cccc(Cl)c3)cn2)ccc1=O` [Compound 361], for which the IC50 at human SCD1 was over 45 µM; at human SCD5 it was 2.63 µM.

Consider `Cn1nc(C(=O)Nc2ccc(CCOc3ccccc3)cn2)ccc1=O` [Compound 362], for which the IC50 was over 45 µM at human SCD1 and 14.5 µM on human SCD5.
